Consider 14 compounds from patent US10206399B2, “Herbicidal composition comprising uracil compound as active ingredient” (Dongbu Farm Hannong Co., Ltd., priority 2012, dated 2019).

The subject of one data set is Ludwigia prostrate. As to the kind of experiment: Paddy field farming herbicidal composition test, plant mortality. The class given is in vivo.
Another data set relates to rice plant. As to the kind of experiment: Paddy field farming herbicidal composition test, plant mortality (crop).
In a further data set the test system is Monochoria vaginalis. As to the kind of experiment: Paddy field farming herbicidal composition test, plant mortality. The class given is in vivo.
Another data set has as its system Porippa islandica. The experiment in a line: Dry field farming herbicidal composition test, plant mortality. The class given is in vivo.
Another data set relates to Capsella bursapastoris. Described as above. The class given is in vivo. The note with it: in % (unit assumed).
For a further data set, the system named is Alopecurus aequalis. Described as above. It is filed as in vivo. The following applies: in % (unit assumed).
In the next data set the test system is wheat. The experiment in a line: Dry field farming herbicidal composition test, plant mortality (crop).
The subject of another data set is Lamium amplexicaule. The experiment in a line: Dry field farming herbicidal composition test, plant mortality. The class given is in vivo. The following applies: in % (unit assumed).
The test system of another data set is ryegrass. The experiment in a line: Nonselective composition of 1 uracil compound and 2 herbicidally active compounds, plant mortality. The class given is in vivo.
The subject of another data set is wild amaranth. Described as above. The class given is in vivo.
The mark [1] stands for this setting: 480 h, read-out: ryegrass mortality (measured value).
The mark [2] stands for this setting: Amaranthus caudatus, 480 h, read-out: Wild amaranth mortality (measured value).

From the text for Alopecurus aequalis: (§1) X is % damage by uracil compound (a) of formula 1 at the rate of application of p kg/ha; Y is % damage by conventional herbicidal compound (b) at the rate of application of q kg/ha; and E is the expected damage caused by compounds (a) and (b) at a rate of application of p and q kg/ha.
(§2) The expected activity for a given combination of two herbicides can be calculated using equation 1 above.
From the text for Capsella bursapastoris: as §1, §2
From the text for Lamium amplexicaule: as §1, §2
From the text for Ludwigia prostrate: as §1, §2
From the text for Monochoria vaginalis: as §1, §2
From the text for Porippa islandica: as §1, §2
From the text for rice plant: as §1, §2
From the text for ryegrass: as §1, §2
From the text for wheat: as §1, §2
From the text for wild amaranth: as §1, §2

Regarding `COc1cc(OC)nc(NC(=O)NS(=O)(=O)Cc2ccccc2C(=O)O)n1` [Bensulfuron], the Ludwigia prostrate mortality (measured value) is 20% in the data set on Ludwigia prostrate (10 g/ha), 40% in the data set with Ludwigia prostrate (20 g/ha) and 55% in the data set on Ludwigia prostrate (40 g/ha). Further, the “Rice plant mortality (measured value)” value in the data set with rice plant (10 g/ha) was found to be 0; with rice plant (20 g/ha) it was 0; with rice plant (40 g/ha) it was 1. For the same compound, the “Monochoria vaginalis mortality (measured value)” value is reported as 15 in the data set with Monochoria vaginalis (10 g/ha), 35 with Monochoria vaginalis (20 g/ha) and 51 in the data set on Monochoria vaginalis (40 g/ha).
Take `O=C(Nc1ccc(F)cc1F)c1cccnc1Oc1cccc(C(F)(F)F)c1` [Diflufenican]: the “Porippa islandica mortality, measured value” (from here on “Porippa islandica mortality”) came to 5 in the data set with Porippa islandica (37.5 g/ha), 20 with Porippa islandica (75 g/ha) and 40 in the data set with Porippa islandica (150 g/ha). Besides, the “Capsella bursapastoris mortality, measured value” (“Capsella bursapastoris mortality” for short) with Capsella bursapastoris (37.5 g/ha) turned out to be 6; with Capsella bursapastoris (75 g/ha) it was 21; in the data set with Capsella bursapastoris (150 g/ha), 45. Moreover, the “Alopecurus aequalis mortality, measured value” (from here on “Alopecurus aequalis mortality”) in the data set with Alopecurus aequalis (37.5 g/ha), in the data set with Alopecurus aequalis (75 g/ha) and in the data set on Alopecurus aequalis (150 g/ha) was 0 throughout. The “Wheat mortality, measured value” was found to be 0 in the data set on wheat (37.5 g/ha), 0 with wheat (75 g/ha) and 1 with wheat (150 g/ha). The “Lamium amplexicaule mortality, measured value” (shortened to “Lamium amplexicaule mortality”) in the data set with Lamium amplexicaule (37.5 g/ha) turned out to be 10; in the data set with Lamium amplexicaule (75 g/ha) it was 24; in the data set on Lamium amplexicaule (150 g/ha), 47.
As for `CP(=O)(O)CCC(N)C(=O)O` (stereo not shown) [Glufosinate-ammonium], the values for the pest or weed control at 150 g/ha in the data set on ryegrass (setting [1]) and in the data set with wild amaranth (setting [2]) were 10% and 20%, respectively.
In the case of `CC(C)N.O=C(O)CNCP(=O)(O)O` [Glyphosate-IPA], the “ryegrass mortality (measured value)” value with ryegrass (300 g ai/ha) is 10. Moreover, the “Wild amaranth mortality (measured value)” value in the data set with wild amaranth (300 g ai/ha) is listed as 10.
As for `COCc1cnc(C2=NC(C)(C(C)C)C(=O)N2)c(C(=O)O)c1` (stereo not shown) [Imazamox], the pest or weed control at 8.3 g/ha with ryegrass (setting [1]) turned out to be 30%; with wild amaranth (setting [2]) it was 20%.
For `CC(C)c1ccc(NC(=O)N(C)C)cc1` [Isoproturon], the “Porippa islandica mortality” value stood at 10 in the data set with Porippa islandica (150 g/ha), 26 with Porippa islandica (300 g/ha) and 53 in the data set with Porippa islandica (600 g/ha). The “Capsella bursapastoris mortality” value is on record as 11 in the data set with Capsella bursapastoris (150 g/ha), 29 in the data set on Capsella bursapastoris (300 g/ha) and 63 with Capsella bursapastoris (600 g/ha). The entries for the “Alopecurus aequalis mortality” value with Alopecurus aequalis (150 g/ha), in the data set with Alopecurus aequalis (300 g/ha) and in the data set with Alopecurus aequalis (600 g/ha) were 15, 32 and 64, respectively. Moreover, the figures for the “Wheat mortality, measured value” in the data set with wheat (150 g/ha), in the data set with wheat (300 g/ha) and in the data set with wheat (600 g/ha) were 0, 0 and 1, respectively. Besides, the “Lamium amplexicaule mortality” value with Lamium amplexicaule (150 g/ha) was 12; in the data set with Lamium amplexicaule (300 g/ha), 25; in the data set on Lamium amplexicaule (600 g/ha), 49.
As to `CCC(C)(CC)c1cc(NC(=O)c2c(OC)cccc2OC)on1` [Isoxaben], the pest or weed control at 31 g/ha in the data set with ryegrass (setting [1]) was determined as 0%; with wild amaranth (setting [2]), 30%.
As for `COC(=O)c1ccc(CNS(C)(=O)=O)cc1S(=O)(=O)NC(=O)Nc1nc(OC)cc(OC)n1` [Mesosulfuron], the “Porippa islandica mortality” value in the data set with Porippa islandica (2 g/ha) is on record as 12; in the data set with Porippa islandica (4 g/ha), 27; in the data set with Porippa islandica (8 g/ha) it was 61. Besides, the “Capsella bursapastoris mortality” value in the data set with Capsella bursapastoris (2 g/ha) was 10; in the data set on Capsella bursapastoris (4 g/ha) it was 30; in the data set on Capsella bursapastoris (8 g/ha), 59. Also, the entries for the “Alopecurus aequalis mortality” value with Alopecurus aequalis (2 g/ha), in the data set on Alopecurus aequalis (4 g/ha) and in the data set on Alopecurus aequalis (8 g/ha) were 15, 32 and 64, respectively. In addition, the “Wheat mortality, measured value” worked out at 0 with wheat (2 g/ha), 0 with wheat (4 g/ha) and 1 in the data set on wheat (8 g/ha). The “Lamium amplexicaule mortality” value in the data set on Lamium amplexicaule (2 g/ha) turned out to be 13; in the data set on Lamium amplexicaule (4 g/ha) it was 26; in the data set with Lamium amplexicaule (8 g/ha) it was 55.
As for `COc1nc(C)nc(=NC(=O)NS(=O)(=O)c2ccccc2C(=O)O)[nH]1` [Metsulfuron], the “Porippa islandica mortality” value with Porippa islandica (1 g/ha) was determined as 5; in the data set with Porippa islandica (2 g/ha), 20; with Porippa islandica (4 g/ha), 45. For the same compound, the “Capsella bursapastoris mortality” value with Capsella bursapastoris (1 g/ha) was 7; in the data set with Capsella bursapastoris (2 g/ha), 24; with Capsella bursapastoris (4 g/ha), 48. In addition, the “Alopecurus aequalis mortality” value in the data set on Alopecurus aequalis (1 g/ha), with Alopecurus aequalis (2 g/ha) and in the data set with Alopecurus aequalis (4 g/ha) was 0 throughout. Besides, the “Wheat mortality, measured value” in the data set with wheat (1 g/ha), with wheat (2 g/ha) and with wheat (4 g/ha) was 0 each time. Besides, the “Lamium amplexicaule mortality” value with Lamium amplexicaule (1 g/ha) was determined as 11; in the data set on Lamium amplexicaule (2 g/ha) it was 29; in the data set with Lamium amplexicaule (4 g/ha) it was 57.
Take `CC(C)Oc1cc(-n2nc(C(C)(C)C)oc2=O)c(Cl)cc1Cl` [Oxadiazon]: the pest or weed control at 500 g/ha in the data set on ryegrass (setting [1]) and in the data set with wild amaranth (setting [2]) was 30% in each case.
Regarding `CCC(CC)Nc1c([N+](=O)[O-])cc(C)c(C)c1[N+](=O)[O-]` [Pendimethalin], the pest or weed control at 250 g/ha turned out to be 30% in the data set with ryegrass (setting [1]) and 20% with wild amaranth (setting [2]).
Consider `O=C(Nc1ccc(F)cc1)c1cccc(Oc2cccc(C(F)(F)F)c2)n1` [Picolinafen], for which the “ryegrass mortality (measured value)” value in the data set with ryegrass (25 g ai/ha) was 0. Also, the “Wild amaranth mortality (measured value)” value in the data set on wild amaranth (25 g ai/ha) worked out at 25.
Turning to `COc1cc(OC)nc(NC(=O)NS(=O)(=O)c2c(C(=O)O)cnn2C)n1` [Pyrazosulfuron], the Ludwigia prostrate mortality (measured value) turned out to be 15% in the data set with Ludwigia prostrate (2 g/ha); 35% with Ludwigia prostrate (4 g/ha); 45% with Ludwigia prostrate (5 g/ha); 65% with Ludwigia prostrate (8 g/ha); 62% in the data set with Ludwigia prostrate (10 g/ha). In addition, the “Rice plant mortality (measured value)” value with rice plant (2 g/ha) is listed as 0; with rice plant (4 g/ha) it was 0; with rice plant (5 g/ha) it was 0; in the data set with rice plant (8 g/ha), 1; with rice plant (10 g/ha) it was 1. Also, the “Monochoria vaginalis mortality (measured value)” value with Monochoria vaginalis (2 g/ha) was found to be 20; in the data set with Monochoria vaginalis (4 g/ha), 40; in the data set with Monochoria vaginalis (5 g/ha) it was 40; in the data set with Monochoria vaginalis (8 g/ha) it was 63; with Monochoria vaginalis (10 g/ha), 67.
`CS(=O)(=O)c1ccc(C(=O)C2C(=O)CCCC2=O)c(Cl)c1` [Sulcotrione]: the pest or weed control at 75 g/ha in the data set with ryegrass (setting [1]) and with wild amaranth (setting [2]) was 20% throughout.
